Test results as given in patent publication US20250161273A1, “PHARMACEUTICAL COMPOSITION COMPRISING DIPHENYLDIAZOLE DERIVATIVES AND METHODS OF USE” (MODAG GMBH, priority 2022, published 2025).
Read-outs that look alike come from different tables or passages of the source.

Key:
monomer = conditions: cited from earlier work
[1] = phase 1 first-in-human trial, multiple ascending dose (MAD) PK; format: in vivo; conditions: for reduction of AUC compared to Day 1 / reduction of Cmax compared to Day 1: Day 7, fasted; for fold increase in AUC / fold increase in Cmax: MAD Day 1; for AUC: read-out: AUC(0-tau) (geometric mean); for Cmax: read-out: Cmax (geometric mean)
Description: Anle138b was studied in a single-centre, double-blind, randomised, placebo-controlled single ascending dose (SAD) and multiple ascending dose (MAD) study in healthy subjects. Eligible participants were randomly assigned (1:1 for sentinel subjects and 1:5 for main group) to placebo or anle138b (dose ranging from 50 mg to 300 mg per day), respectively. In addition, the effect of food on the pharmacokinetics (PK) of anle138b in healthy subjects was examined at doses of 150 mg per day (FES, food effect study). Participants were randomized to treatment sequence (fed→fasted) or (fasted→fed). Treatment for the SAD, MAD and FES arms of the study was administered orally in hard gelatin capsules containing either 10 mg or 30 mg of anle138b with excipient (i.e., lauroyl polyoxyl-32 glycerides) or excipient only. The primary endpoints were safety and tolerability, the secondary endpoint was pharmacokinetics. Data from all randomized individuals were evaluated. [Clinicaltrials.gov-identifier: NCT04208152. EudraCT-number: 2019-004218-33]
Study design: A single-centre, double-blind, randomised, placebo-controlled single ascending dose (SAD) and multiple ascending dose (MAD) study of anle138b in doses of up to 300 mg per day in healthy subjects. The effect of food (FES) on the PK of anle138b in healthy subjects was examined using doses of 150 mg. Participants were recruited from Quotient Sciences (the “CRO”, Nottingham, UK) volunteer database. Approvals from the ethical review board and from the Medicines and Healthcare products Regulatory Agency (UK) were obtained. This study was conducted in accordance with the protocol and with the following legislation: The updated version of the international Council for Harmonisation Good Clinical Practice (GCP) including the integrated Addendum E6, the Medicines for Human Use (Clinical Trials) Regulations including amendments No. 1928, 2984 and 941. In addition, the study was performed according to the ethical principles outlined in the World Medical Association Declaration of Helsinki and its amendments. The study data was monitored. An independent study monitor was appointed to verify that the study was conducted in accordance with current GCP, regulatory requirements, the protocol and that the data were authentic, accurate and complete.
In SAD, subjects received a single dose of anle138b or placebo after fasting from all food and drink (except water) for a minimum of 8 h prior to dosing. The dosing in the four SAD-cohorts were 50 mg, 100 mg, 200 mg and 300 mg of free anle138b equivalent, QD, cohorts A, B, C and D respectively. In the MAD part, participants received anle138b or placebo once daily (QD) for 7 days after fasting from all food and drink (except water) for a minimum of 8 h prior to dosing. The dosing in the three MAD-cohorts was 100 mg, 200 mg and 300 mg of free anle138b equivalent, cohorts AM, BM and CM, respectively. Post dosing mouth and hand checks were conducted to ensure the capsules were swallowed. In-study decisions were made by the safety advisory committee (SAC) comprising the principal investigator, the sponsor's medical monitor and a PK expert. For dose escalation to proceed, data needed to be available from a minimum of 6 subjects per cohort with completed per protocol safety and PK assessments up to 48 h after dosing to ensure at least 4 subjects had received active IMP. The decision to proceed to the next higher dose level was based on safety, tolerability and available PK data to 48 h post-administration. The following data were analyzed: Adverse events, vital signs, safety laboratory, ECG, physical examinations, plasma concentrations of anle138b with interim PK parameter estimations (Tmax, Cmax, AUC0-24, AUC0-tau, AUC0-last and T½, where applicable). Data were provided to the SAC in accordance with CRO standard operating procedure (SOP) on interim dose decision-making and dose escalation. […]

[2] = 1.5-fold increase in dose from 200 mg to 300 mg
[3] = 2-fold increase in dose from 100 mg to 200 mg
[4] = human, plasma, oral, 100 mg, healthy volunteers, fasted, 100 mg QD, Day 1
[5] = human, plasma, oral, 100 mg, healthy volunteers, fasted, 100 mg QD, Day 7
[6] = human, plasma, oral, 200 mg, healthy volunteers, fasted, 200 mg QD, Day 1
[7] = human, plasma, oral, 200 mg, healthy volunteers, fasted, 200 mg QD, Day 7
[8] = human, plasma, oral, 300 mg, healthy volunteers, fasted, 300 mg QD, Day 1
[9] = human, plasma, oral, 300 mg, healthy volunteers, fasted, 300 mg QD, Day 7

In the case of `Brc1cccc(-c2cc(-c3ccc4c(c3)OCO4)n[nH]2)c1` [anle138b, 3-(1,3-benzodioxol-5-yl)-5-(3-bromophenyl)-1H-pyrazole], the “binding to the monomer (in words)” value (monomer) is listed as “does not bind to the monomer”, the “reduction of AUC compared to Day 1” value ([1]; MAD 100 mg group) is listed as “about 53%” and the “reduction of Cmax compared to Day 1” value ([1]; MAD 100 mg group) is listed as “about 53%”. The “reduction of AUC compared to Day 1” value ([1]; MAD 200 mg group) was “about 70%”, the “reduction of Cmax compared to Day 1” value ([1]; MAD 200 mg group) was “about 70%” and the “reduction of AUC compared to Day 1” value ([1]; MAD 300 mg group) was 71%. For the same compound, the “reduction of Cmax compared to Day 1” value ([1]; MAD 300 mg group) was 66%, the “fold increase in AUC” value [1, 2] was 2.4 fold and the “fold increase in Cmax” value [1, 2] was 2.0 fold. The “fold increase in AUC” value [1, 3] was 3.5 fold, the “fold increase in Cmax” value [1, 3] was 3.3 fold and the “accumulation ratios per cohort” value ([1]; MAD, Day 7 vs Day 1) was “below 0.54”. The “day by which steady state exposure appeared to be reached” value ([1]; MAD, based on trough levels) was ≤ 5 days, the Tmax ([1]; human, plasma, oral, 100 mg, healthy volunteers, fasted, 100 mg QD (Cohort AM), Day 1, read-out: Tmax (median)) was 1 h and the Tmax ([1]; human, plasma, oral, 100 mg, healthy volunteers, fasted, 100 mg QD (Cohort AM), Day 1, read-out: Tmax (range)) was 1 to 1.5 h. It also gave a Tmax ([1]; human, plasma, oral, 100 mg, healthy volunteers, fasted, 100 mg QD (Cohort AM), Day 7, read-out: Tmax (median)) of 1.25 h, a Tmax ([1]; human, plasma, oral, 100 mg, healthy volunteers, fasted, 100 mg QD (Cohort AM), Day 7, read-out: Tmax (range)) of 1 to 1.5 h and an AUC [1, 4] of ~261 ng·h/mL. It also gave a Cmax [1, 4] of ~135 ng/mL, an AUC [1, 5] of ~141 ng·h/mL and a Cmax [1, 5] of ~70.9 ng/mL. The half-life ([1]; human, plasma, oral, 100 mg, healthy volunteers, fasted, 100 mg QD, Day 7, read-out: T1/2 (geometric mean) (converted)) was ~4.23 h, the Tmax ([1]; human, plasma, oral, 200 mg, healthy volunteers, fasted, 200 mg QD (Cohort BM), Day 1, read-out: Tmax (median)) was 1.5 h and the Tmax ([1]; human, plasma, oral, 200 mg, healthy volunteers, fasted, 200 mg QD (Cohort BM), Day 1, read-out: Tmax (range)) was 1 to 2.02 h. For the same compound, the Tmax ([1]; human, plasma, oral, 200 mg, healthy volunteers, fasted, 200 mg QD (Cohort BM), Day 7, read-out: Tmax (median)) was 1 h, the Tmax ([1]; human, plasma, oral, 200 mg, healthy volunteers, fasted, 200 mg QD (Cohort BM), Day 7, read-out: Tmax (range)) was 1 to 1.5 h and the AUC [1, 6] was ~905 ng·h/mL. For the same compound, the Cmax [1, 6] was ~447 ng/mL, the AUC [1, 7] was ~308 ng·h/mL and the Cmax [1, 7] was ~128 ng/mL. It also gave a half-life at 7 days ([1]; human, plasma, oral, 200 mg, healthy volunteers, fasted, 200 mg QD, Day 7, read-out: T1/2 (geometric mean) (converted)) of ~10 h, a Tmax ([1]; human, plasma, oral, 300 mg, healthy volunteers, fasted, 300 mg QD (Cohort CM), Day 1, read-out: Tmax (median)) of 1.5 h and a Tmax ([1]; human, plasma, oral, 300 mg, healthy volunteers, fasted, 300 mg QD (Cohort CM), Day 1, read-out: Tmax (range)) of 1.5 to 2 h. For the same compound, the Tmax ([1]; human, plasma, oral, 300 mg, healthy volunteers, fasted, 300 mg QD (Cohort CM), Day 7, read-out: Tmax (median)) was 1.5 h, the Tmax ([1]; human, plasma, oral, 300 mg, healthy volunteers, fasted, 300 mg QD (Cohort CM), Day 7, read-out: Tmax (range)) was 1 to 1.5 h and the AUC [1, 8] was ~2210 ng·h/mL. The Cmax [1, 8] was ~910 ng/mL, the AUC [1, 9] was ~633 ng·h/mL and the Cmax [1, 9] was ~307 ng/mL. It also gave a half-life ([1]; human, plasma, oral, 300 mg, healthy volunteers, fasted, 300 mg QD, Day 7, read-out: T1/2 (geometric mean) (converted)) of ~6.07 h and a Tmax ([1]; human, plasma, oral, healthy volunteers, 100-300 mg QD, post-administration, read-out: median Tmax, all MAD cohorts) of 1 to 1.5 h.
